Measured values as given in ChEMBL document CHEMBL1125524, “Adenosine A1 antagonists. 2. Structure-activity relationships on diuretic activities and protective effects against acute renal failure” (J Med Chem, 1992).

Columns and labels:
[1] = tested on: Rattus norvegicus; test: Percent inhibition of serum creatinine by the compound given as ratio of Cr value in treated to vehicle treated ones after intraperitoneal administration of 10 mg/kg of compound to rats(vehicle 3.93+/-0.45); assay type: functional; settings: ip
[2] = tested on: Rattus norvegicus; test: Effect on urinary excretion potassium and sodium after oral administration of 0.1 mg/kg to rats(potassium and sodium excretion in control rat is 0.133+/-0.022); assay type: functional, Urine
[3] = tested on: Rattus norvegicus; test: Percent inhibition of Urea nitrogen by the compound given as ratio of UN value in treated to vehicle treated ones after intraperitoneal administration of 10 mg/kg of compound to rats(vehicle 129.1+/-14.5); assay type: functional; settings: ip
[4] = tested on: Rattus norvegicus; test: Ratio of sodium ion/potassium ion concentration in treated rats to that in control rats, at a peroral dose of 0.4 mg/Kg; assay type: functional
[5] = tested on: Rattus norvegicus; test: Oral diuretic activity was measured after oral administration of 1.6 mg/kg to rats(control volume is 0.96+/-0.09); assay type: functional, Urine
[6] = tested on: Rattus norvegicus; test: Ratio of urinary excretion value (urinary volume) in treated rats to that in control rats, at a peroral dose of 1.6 mg/Kg; assay type: functional, Urine
[7] = tested on: Rattus norvegicus; test: Oral diuretic activity was measured after oral administration of 0.1 mg/kg to rats(control volume is 1.15+/-0.12); assay type: functional, Urine
[8] = tested on: Rattus norvegicus; test: Urea nitrogen concentration measured after intraperitoneal administration of 10 mg/kg of compound to rats(vehicle 129.1+/-14.5); assay type: functional
[9] = tested on: Rattus norvegicus; test: Ratio of urinary excretion value (urinary volume) in treated rats to that in control rats, at a peroral dose of 0.1 mg/Kg; assay type: functional, Urine
[10] = tested on: Rattus norvegicus; test: Urea nitrogen concentration measured after intraperitoneal administration of 1 mg/kg of compound to rats(vehicle 105.2+/-14.9); assay type: functional
[11] = tested on: Rattus norvegicus; test: Serum creatinine concentration measured after intraperitoneal administration of 10 mg/kg of compound to rats(vehicle 3.93+/-0.45); assay type: functional
[12] = tested on: Rattus norvegicus; test: Ratio of urinary excretion value (Na+ concentration) in treated rats to that in control rats, at a peroral dose of 0.4 mg/Kg; assay type: functional, Urine
[13] = tested on: Rattus norvegicus; test: Ratio of sodium ion/potassium ion concentration in treated rats to that in control rats, at a peroral dose of 1.6 mg/Kg; assay type: functional
[14] = molecular target: T1, Adenosine A2 receptor (Rattus norvegicus, UniProt P29276+P30543)
[15] = tested on: Rattus norvegicus; test: Percent inhibition of serum creatinine by the compound given as ratio of Cr value in treated to vehicle treated ones after intraperitoneal administration of 1 mg/kg of compound to rats(vehicle 3.62+/-0.52); assay type: functional; settings: ip
[16] = tested on: Rattus norvegicus; test: Effect on urinary excretion potassium and sodium after oral administration of 1.6 mg/kg to rats(potassium and sodium excretion in control rat is 0.147+/-0.015); assay type: functional, Urine
[17] = tested on: Rattus norvegicus; test: Ratio of urinary excretion value (urinary volume) in treated rats to that in control rats, at a peroral dose of 0.4 mg/Kg; assay type: functional, Urine
[18] = tested on: Rattus norvegicus; test: Oral diuretic activity was measured after oral administration of 0.4 mg/kg to rats(control volume is 1.15+/-0.17); assay type: functional, Urine
[19] = tested on: Rattus norvegicus; test: Serum creatinine concentration measured after intraperitoneal administration of 1 mg/kg of compound to rats(vehicle 3.62+/-0.52); assay type: functional
[20] = tested on: Rattus norvegicus; test: Ratio of urinary excretion value (Na+ concentration) in treated rats to that in control rats, at a peroral dose of 1.6 mg/Kg; assay type: functional, Urine
[21] = tested on: Rattus norvegicus; test: Ratio of sodium ion/potassium ion concentration in treated rats to that in control rats, at a peroral dose of 0.1 mg/Kg; assay type: functional
[22] = tested on: Rattus norvegicus; test: Ratio of urinary excretion value (Na+ concentration) in treated rats to that in control rats, at a peroral dose of 0.1 mg/Kg; assay type: functional, Urine
[23] = tested on: Rattus norvegicus; test: Percent inhibition of Urea nitrogen by the compound given as ratio of UN value in treated to vehicle treated ones after intraperitoneal administration of 1 mg/kg of compound to rats(vehicle 105.2+/-14.9); assay type: functional; settings: ip
[24] = tested on: Rattus norvegicus; test: Effect on urinary excretion potassium and sodium after oral administration of 0.4 mg/kg to rats(potassium and sodium excretion in control rat is 0.191+/-0.020); assay type: functional, Urine
[25] = tested on: Rattus norvegicus; test: Ratio of sodium ion/potassium ion concentration in treated rats to that in control rats, at a peroral dose of 1.5 mg/Kg; assay type: functional
[26] = tested on: Rattus norvegicus; test: Ratio of urinary excretion value (Na+ concentration) in treated rats to that in control rats, at a peroral dose of 1.5 mg/Kg; assay type: functional, Urine
[27] = tested on: Rattus norvegicus; test: Ratio of urinary excretion value (urinary volume) in treated rats to that in control rats, at a peroral dose of 6.25 mg/Kg; assay type: functional, Urine
[28] = tested on: Rattus norvegicus; test: Ratio of sodium ion/potassium ion concentration in treated rats to that in control rats, at a peroral dose of 25 mg/Kg; assay type: functional
[29] = tested on: Rattus norvegicus; test: Serum creatinine concentration measured after intraperitoneal administration of 1 mg/kg of compound to rats(vehicle 4.19+/-0.2); assay type: functional
[30] = tested on: Rattus norvegicus; test: Effect on urinary excretion potassium and sodium after oral administration of 25 mg/kg to rats(potassium and sodium excretion in control rat is […]+/-[…]); assay type: functional, Urine
[31] = tested on: Rattus norvegicus; test: Oral diuretic activity was measured after oral administration of 25 mg/kg to rats(control volume is 0.74+/-0.05); assay type: functional, Urine
[32] = tested on: Rattus norvegicus; test: Effect on urinary excretion potassium and sodium after oral administration of 1.5 mg/kg to rats(potassium and sodium excretion in control rat is 0.165+/-0.008); assay type: functional, Urine
[33] = tested on: Rattus norvegicus; test: Serum creatinine concentration measured after intraperitoneal administration of 0.1 mg/kg of compound to rats(vehicle 2.9+/-0.28); assay type: functional
[34] = tested on: Rattus norvegicus; test: Urea nitrogen concentration measured after intraperitoneal administration of 0.1 mg/kg of compound to rats(vehicle 93.4+/-10); assay type: functional
[35] = tested on: Rattus norvegicus; test: Ratio of urinary excretion value (Na+ concentration) in treated rats to that in control rats, at a peroral dose of 25 mg/Kg; assay type: functional, Urine
[36] = tested on: Rattus norvegicus; test: Ratio of urinary excretion value (urinary volume) in treated rats to that in control rats, at a peroral dose of 1.5 mg/Kg; assay type: functional, Urine
[37] = tested on: Rattus norvegicus; test: Ratio of urinary excretion value (urinary volume) in treated rats to that in control rats, at a peroral dose of 25 mg/Kg; assay type: functional, Urine
[38] = tested on: Rattus norvegicus; test: Urea nitrogen concentration measured after intraperitoneal administration of 1 mg/kg of compound to rats(vehicle 156.1+/-8.4); assay type: functional
[39] = tested on: Rattus norvegicus; test: Oral diuretic activity was measured after oral administration of 1.5 mg/kg to rats(control volume is 1.01+/-0.08); assay type: functional, Urine
[40] = tested on: Rattus norvegicus; test: Ratio of urinary excretion value (Na+ concentration) in treated rats to that in control rats, at a peroral dose of 6.25 mg/Kg; assay type: functional, Urine
[41] = tested on: Rattus norvegicus; test: Oral diuretic activity was measured after oral administration of 25 mg/kg to rats(control volume is 0.91+/-0.04); assay type: functional, Urine
[42] = tested on: Rattus norvegicus; test: Urea nitrogen concentration measured after intraperitoneal administration of 1 mg/kg of compound to rats(vehicle 154.2+/-5.0); assay type: functional
[43] = tested on: Rattus norvegicus; test: Effect on urinary excretion potassium and sodium after oral administration of 1.6 mg/kg to rats(potassium and sodium excretion in control rat is 0.173+/-0.015); assay type: functional, Urine
[44] = tested on: Rattus norvegicus; test: Oral diuretic activity was measured after oral administration of 1.6 mg/kg to rats(control volume is 0.93+/-0.03); assay type: functional, Urine
[45] = molecular target: T2, Adenosine receptor A1 (Rattus norvegicus, UniProt P25099)
T2 sequence (P25099 whole entry): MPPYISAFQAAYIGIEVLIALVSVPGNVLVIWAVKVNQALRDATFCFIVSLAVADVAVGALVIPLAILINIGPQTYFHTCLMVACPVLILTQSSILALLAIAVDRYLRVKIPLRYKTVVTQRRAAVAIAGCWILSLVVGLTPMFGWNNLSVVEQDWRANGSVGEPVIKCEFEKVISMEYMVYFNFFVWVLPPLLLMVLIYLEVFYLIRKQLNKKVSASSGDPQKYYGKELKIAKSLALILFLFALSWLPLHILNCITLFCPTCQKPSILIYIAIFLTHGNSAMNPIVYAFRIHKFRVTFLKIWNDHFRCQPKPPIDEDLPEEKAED
Description: Binding affinity towards adenosine A1 receptor in rat cortical membranes using N6-[3H]cyclohexyladenosine as radioligand

[46] = tested on: Rattus norvegicus; test: Serum creatinine concentration measured after intraperitoneal administration of 1 mg/kg of compound to rats(vehicle 4.70+/-0.17); assay type: functional
[47] = tested on: Rattus norvegicus; test: Percent inhibition of Urea nitrogen by the compound given as ratio of UN value in treated to vehicle treated ones after intraperitoneal administration of 1 mg/kg of compound to rats(vehicle 154.2+/-5.0); assay type: functional; settings: ip
[48] = tested on: Rattus norvegicus; test: Percent inhibition of serum creatinine by the compound given as ratio of Cr value in treated to vehicle treated ones after intraperitoneal administration of 1 mg/kg of compound to rats(vehicle 4.70+/-0.17); assay type: functional; settings: ip
[49] = molecular target: T1, Adenosine A2 receptor; remark: listed apart in the source
Description: Binding affinity towards adenosine A2 receptor in rat striatal membranes using N-[3H]-ethyladenosin-5''-uronamide as radioligand

[50] = tested on: Rattus norvegicus; test: Effect on urinary excretion potassium and sodium after oral administration of 25 mg/kg to rats(potassium and sodium excretion in control rat is 0.186+/-0.020); assay type: functional, Urine
[51] = molecular target: T3, Adenosine receptor A1 (Cavia porcellus, UniProt P47745)
T3 sequence (P47745 whole entry): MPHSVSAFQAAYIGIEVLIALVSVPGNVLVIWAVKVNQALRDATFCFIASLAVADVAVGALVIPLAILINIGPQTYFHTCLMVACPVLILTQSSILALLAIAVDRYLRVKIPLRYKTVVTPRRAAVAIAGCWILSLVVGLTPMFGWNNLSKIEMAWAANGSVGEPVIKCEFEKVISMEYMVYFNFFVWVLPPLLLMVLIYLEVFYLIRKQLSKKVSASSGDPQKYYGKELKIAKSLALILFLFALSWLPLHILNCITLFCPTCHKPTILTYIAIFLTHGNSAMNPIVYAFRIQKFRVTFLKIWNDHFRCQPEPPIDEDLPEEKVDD
Description: Binding affinity against adenosine A1 receptor in guinea pig forebrain membranes using N6-[3H]cyclohexyladenosine as radioligand

SMILES: CCn1c(=O)c2nc(C(C3CC3)C3CC3)[nH]c2n(CC)c1=O
- inhibition in vivo at 10 mg/kg [1]: 56%
- Na [2]: 0.113 m equiv 6hr-1 100g-1
- inhibition in vivo at 10 mg/kg [3]: 61%
- Na+/K+ [4]: 1.63
- Urine volume [5]: 1.72 ml 6hr-1 100g-1
- T/C [6]: 1.71
- Urine volume [7]: 0.83 ml 6hr-1 100g-1
- UN [8]: 50.6 mg/dL
- T/C [9]: 0.72
- UN [10]: 98.5 mg/dL
- Cr [11]: 1.74 mg/dL
- T/C [12]: 2.27
- Na+/K+ [13]: 1.71
- Ki [14]: 690 nM
- inhibition in vivo at 1 mg/kg [15]: 10%
- Na [16]: 0.312 m equiv 6hr-1 100g-1
- T/C [17]: 1.84
- Urine volume [18]: 2.11 ml 6hr-1 100g-1
- Cr [19]: 3.24 mg/dL
- T/C [20]: 2.12
- Na+/K+ [21]: 1.37
- T/C [22]: 0.85
- inhibition in vivo at 1 mg/kg [23]: 6%
- Na [24]: 0.433 m equiv 6hr-1 100g-1

SMILES: CCCn1c(=O)[nH]c(=O)c2[nH]c(C(C3CC3)C3CC3)nc21
- Na+/K+ [25]: 1.13
- T/C [26]: 1.22
- T/C [27]: 1.42
- Na+/K+ [28]: 1.4
- Cr [29]: 3 mg/dL
- Na [30]: 0.328 m equiv 6hr-1 100g-1
- Urine volume [31]: 1.85 ml 6hr-1 100g-1
- Na [32]: 0.202 m equiv 6hr-1 100g-1
- Cr [33]: 2.96 mg/dL
- UN [34]: 104.2 mg/dL
- T/C [35]: 2.16
- T/C [36]: 1.12
- T/C [37]: 2.5
- UN [38]: 119.1 mg/dL
- Ki [14]: > 100000 nM
- Urine volume [39]: 1.13 ml 6hr-1 100g-1
- T/C [40]: 1.69

SMILES: FC(F)(F)c1nnc2c(NC3CCCC3)nc3ccc(Cl)cc3n12
- Urine volume [41]: 1.74 ml 6hr-1 100g-1
- T/C [27]: 2.17
- UN [42]: 88.7 mg/dL
- Na+/K+ [28]: 1.31
- Na [43]: 0.212 m equiv 6hr-1 100g-1
- Urine volume [44]: 1.07 ml 6hr-1 100g-1
- Ki [45]: 5.5 nM
- T/C [6]: 1.15
- Cr [46]: 2.58 mg/dL
- inhibition in vivo at 1 mg/kg [47]: 42%
- T/C [35]: 1.74
- Na+/K+ [13]: 0.98
- T/C [37]: 1.91
- Ki [14]: 710 nM
- inhibition in vivo at 1 mg/kg [48]: 45%
- Ki [49]: 2100 nM
- T/C [20]: 1.22
- T/C [40]: 1.82
- Na [50]: 0.323 m equiv 6hr-1 100g-1
- Ki [51]: 36 nM
